For this assay, the system named is LS174T cells. In words: Cell proliferation inhibition assay (5 days, cell counting). The following applies: for inhibition at 0.062 µM / inhibition at 0.125 µM / inhibition at 0.25 µM / inhibition at 0.5 µM / IC50 / inhibition at 3 µM / inhibition at 1 µM / inhibition at 0.3 µM: Homo sapiens, LS174T; for inhibition at 0.062 µM / inhibition at 0.125 µM / inhibition at 0.25 µM / inhibition at 0.5 µM: 120 h; for inhibition at 0.062 µM: 62 nM; for inhibition at 0.125 µM: 125 nM; for IC50: dose response studies, read-out: IC50 values in cell proliferation assays; for inhibition at 3 µM: read-out: Inhibition % on LS174T cells Proliferation 3 uM Inhib. %; for inhibition at 1 µM: read-out: Inhibition % on LS174T cells Proliferation 1 uM Inhib. %; for inhibition at 0.3 µM: read-out: Inhibition % on LS174T cells Proliferation 0.3 uM Inhib. %. The class given is cell-based. How it is done: Cell proliferation inhibition assays were done following a previous report (32). Cancer cells were seeded into 24-well plates at a density of 20,000 cells per well in 1 mL of culture medium and were cultured overnight at 37° C. Compounds and the vehicle control (DMSO) were added to the cells. After 5 days, the medium was removed, and 100 μL of trypsin was added. The cells were resuspended in phosphate-buffered saline (PBS) and were counted by Vi-CELL XR 2.03 (Beckman Coulter, Inc. USA). The ratio R of the number of viable cells in the compound treatment group to the number of viable cells in DMSO treatment group was taken as relative growth, and the percentage growth inhibition was calculated as (1−R)*100.

With “3-(1-Methyl-1H-indol-3-yl)-7-(4-methylpiperazin-1-yl)quinolin-2-amine [ISQ-3]”, the “Inhibition % on LS174T cells Proliferation 250 nM” value (250 nM, 5 days) was determined as 27 ± 14%. For the setting “0.3 uM”, the “Inhibition % on LS174T cells Proliferation 0.3 uM Inhib. %” value stood at 73.9%. The “Inhibition % on LS174T cells Proliferation 500 nM” value (500 nM, 5 days) is given as 89 ± 2.1%. Also, the “Inhibition % on LS174T cells Proliferation 1 uM Inhib. %” value (1 uM) is listed as 95.5%. For the same molecule, the “Inhibition % on LS174T cells Proliferation 3 uM Inhib. %” value (3 uM) was 99.7%.
`Cn1cc(-c2cc3ccc(N4CCCCC4)cc3nc2N)c2ccccc21` [ISQ-2, 3-(1-Methyl-1H-indol-3-yl)-7-(piperidin-1-yl)quinolin-2-amine]: under “5 days”, the inhibition at 0.062 µM was 8.2 ± 5.6% and the inhibition at 0.125 µM was found to be 28 ± 4.6%. Further, the inhibition at 0.25 µM (250 nM, 5 days) worked out at 55 ± 0.5%. The inhibition at 0.5 µM (500 nM, 5 days) stood at 97 ± 0.4%.
On to `CC(C)C1CCN(c2ccc3cc(-c4cn(C)c5ccccc45)c(N)nc3c2)CC1` [ISQ-4, 7-(4-Isopropylpiperidin-1-yl)-3-(1-methyl-1H-indol-3-yl)quinolin-2-amine], for which, where the note is “500 nM, 5 days”, the inhibition at 0.5 µM worked out at 36 ± 0.9%.
Still for that read-out and setting: in the case of `Cn1cc(-c2cc3ccc(N4CCC(Cc5ccccc5)CC4)cc3nc2N)c2ccccc21` [ISQ-5, 7-(4-Benzylpiperidin-1-yl)-3-(1-methyl-1H-indol-3-yl)quinolin-2-amine] it was 21 ± 3.9%; in that of `Cn1cc(-c2cc3ccc(N4CCC(c5ccccc5)CC4)cc3nc2N)c2ccccc21` [ISQ-6, 3-(1-Methyl-1H-indol-3-yl)-7-(4-phenylpiperidin-1-yl)quinolin-2-amine], 56 ± 13.1%.
Take `Cn1cc(-c2cc3ccc(N4CCC(CO)CC4)cc3nc2N)c2ccccc21` [ISQ-8, (1-(2-Amino-3-(1-methyl-1H-indol-3-yl)quinolin-7-yl)piperidin-4-yl)methanol]: the IC50 is ~100 nM. Besides, under “500 nM”, the “percentage inhibition of LS174T cell proliferation at 500 nM, compared among ISQs (FIG. 2B)” value (“percentage inhibition” for short) is “comparable to the N,N-dimethylamino group in ISQ-1”. Under “5 days”, this molecule displayed an inhibition at 0.062 µM of 20 ± 9% and an inhibition at 0.125 µM of 59 ± 2.7%. Also, the inhibition at 0.25 µM (250 nM, 5 days) was 97 ± 0.2%. Moreover, the inhibition at 0.5 µM (500 nM, 5 days) came to 98 ± 0.6%.
For `COCC1CCN(c2ccc3cc(-c4cn(C)c5ccccc45)c(N)nc3c2)CC1` [ISQ-9, 7-(4-(Methoxymethyl)piperidin-1-yl)-3-(1-methyl-1H-indol-3-yl)quinolin-2-amine], the IC50 was ~100 nM. In addition, the “percentage inhibition” value (500 nM) is reported as “comparable to the N,N-dimethylamino group in ISQ-1”. For the setting “5 days”, this molecule gave an inhibition at 0.062 µM of 12 ± 1.9% and an inhibition at 0.125 µM of 55 ± 2.3%. The molecule further displayed an inhibition at 0.25 µM (250 nM, 5 days) of 98%. Besides, the inhibition at 0.5 µM (500 nM, 5 days) is 99 ± 0.1%.
As to `Cn1cc(-c2cc3ccc(N4CCC(c5ccncc5)CC4)cc3nc2N)c2ccccc21` [ISQ-10, 3-(1-Methyl-1H-indol-3-yl)-7-(4-(pyridin-4-yl)piperidin-1-yl)quinolin-2-amine], the IC50 is ~100 nM. Further, the “percentage inhibition” value (500 nM) was “comparable to the N,N-dimethylamino group in ISQ-1”. Where the note is “5 days”, the inhibition at 0.062 µM came out at 21 ± 5.7% and the inhibition at 0.125 µM amounted to 84 ± 2.7%. Under “250 nM, 5 days”, this molecule had an inhibition at 0.25 µM of 99 ± 13.1%. Where the note is “500 nM, 5 days”, this molecule yielded an inhibition at 0.5 µM of 99 ± 0.1%.
As for `CN(C)c1ccc2cc(-c3nc4ccc(F)cc4s3)c(N)nc2c1` [LMK-5-52], the inhibition at 3 µM is 97%.
Turning to `CN(C)c1ccc2cc(-c3nc4ccc(Cl)cc4s3)c(N)nc2c1` [LMK-5-55], the inhibition at 3 µM stood at 97.6%.
The same measure, in the same setting: in the case of `CN(C)c1ccc2cc(-c3nc4cc(C(C)(C)C)ccc4o3)c(N)nc2c1` [LMK-5-60] it was 91.5%; in that of `COc1ccc2nc(-c3cc4ccc(N(C)C)cc4nc3N)sc2c1` [LMK-5-62], 85.5%.
As to `CN(C)c1ccc2cc(-c3nc(-c4ccc(Br)cc4)cs3)c(N)nc2c1` [LMK-5-66], the inhibition at 1 µM was 45% and the inhibition at 3 µM was 98.9%.
For `CN(C)c1ccc2cc(-c3nc(-c4ccccc4)cs3)c(N)nc2c1` [LMK-5-67] the same measures were 96.9% and 99.8%.
For `COc1ccc(-c2csc(-c3cc4ccc(N(C)C)cc4nc3N)n2)cc1` [LMK-5-68] the same measures were 24.2% and 94.3%.
The matching figures for `Nc1nc2cc(N3CCOCC3)ccc2cc1-c1cc(Cl)cc(Cl)c1` [LMK-5-276]: 35% and 65.2%.
Take `CN1CCN(c2ccc3cc(-c4cc(Cl)cc(Cl)c4)c(N)nc3c2)CC1` [LMK-5-278]: the inhibition at 1 µM came out at 27.9% and the inhibition at 3 µM is 87.7%.
For `Nc1nc2cc(N3CCCCC3)ccc2cc1-c1cc(Cl)cc(Cl)c1` [LMK-5-279], the inhibition at 1 µM worked out at 46.6% and the inhibition at 3 µM was found to be 87.6%.
Consider `Nc1nc2cc(N3CCCC3)ccc2cc1-c1cc(Cl)cc(Cl)c1` [LMK-5-280], for which the inhibition at 0.3 µM turned out to be 31%, the inhibition at 1 µM was determined as 93.1% and the inhibition at 3 µM stood at 97.7%.
The matching figures for `Cn1cc(-c2cc3ccc(N4CCOCC4)cc3nc2N)c2ccccc21` [LMK-5-281]: 30.9%, 93.7% and 98.1%.
As for `CN1CCN(c2ccc3cc(-c4cn(C)c5ccccc45)c(N)nc3c2)CC1` [LMK-5-282], the inhibition at 1 µM is 25.2% and the inhibition at 3 µM was 83.7%.
As to `Nc1nc2cc(N3CCOCC3)ccc2cc1-c1ccccc1F` [LMK-5-284], the inhibition at 1 µM amounted to 20.6% and the inhibition at 3 µM is 85.6%.
`Nc1nc2cc(N3CCCCC3)ccc2cc1-c1ccccc1F` [LMK-5-286]: the inhibition at 0.3 µM was 21.9%, the inhibition at 1 µM worked out at 96% and the inhibition at 3 µM was found to be 97%.
In turn, `CC(C)C1CCN(c2ccc3cc(-c4ccccc4F)c(N)nc3c2)CC1` [LMK-6-84] gave an inhibition at 0.5 µM (500 nM, 5 days) of 79 ± 5.7%.
With `Nc1nc2cc(N3CCC(c4ccccc4)CC3)ccc2cc1-c1ccccc1F` [LMK-6-89], under “5 days”, the inhibition at 0.062 µM came to 2 ± 3% and the inhibition at 0.125 µM was 20 ± 0.6%. Also, the inhibition at 0.25 µM (250 nM, 5 days) was determined as 23 ± 3.8%. For the same molecule, the inhibition at 0.5 µM (500 nM, 5 days) amounted to 89 ± 1%.
On to `Nc1nc2cc(N3CCC(Cc4ccccc4)CC3)ccc2cc1-c1ccccc1F` [LMK-6-91], for which the inhibition at 0.5 µM (500 nM, 5 days) stood at 14 ± 1.2%.
Turning to `N#CC1CCN(c2ccc3cc(-c4ccccc4F)c(N)nc3c2)CC1` [LMK-6-99], where the note is “5 days”, the inhibition at 0.062 µM amounted to 2 ± 0.2% and the inhibition at 0.125 µM turned out to be 9 ± 2.2%. The molecule also had an inhibition at 0.25 µM (250 nM, 5 days) of 17 ± 0.1%. Further, the inhibition at 0.5 µM (500 nM, 5 days) came to 64 ± 3.5%.
The matching figures for `COCC1CCN(c2ccc3cc(-c4ccccc4F)c(N)nc3c2)CC1` [LMK-6-109]: 16 ± 8.4%, 29 ± 0.3%, 70 ± 8.8% and 94 ± 0.1%.
As for `Nc1nc2cc(N3CCC(CO)CC3)ccc2cc1-c1ccccc1F` [LMK-6-117], under “5 days”, the inhibition at 0.062 µM came to 12 ± 1.4% and the inhibition at 0.125 µM was found to be 12 ± 0.7%. This molecule also gave an inhibition at 0.25 µM (250 nM, 5 days) of 32 ± 10.5%. The molecule further returned an inhibition at 0.5 µM (500 nM, 5 days) of 59 ± 0.3%.
With `CN(C)c1ccc2cc(-c3ccc(Cl)c(Cl)c3)c(N)nc2c1` [VMS-4-57], the inhibition at 0.3 µM amounted to 26.7%, the inhibition at 1 µM turned out to be 57.8% and the inhibition at 3 µM worked out at 74.3%.
On to `CN(C)c1ccc2cc(-c3cc(Cl)cc(Cl)c3)c(N)nc2c1` [VMS-4-103], for which the inhibition at 3 µM was determined as 86.4%.
As to `CN(C)c1ccc2cc(-c3nc4ccccc4s3)c(N)nc2c1` [VMS-7-1], the inhibition at 3 µM was determined as 95.3%.
Turning to `CN(C)c1ccc2cc(-c3csc4ccccc34)c(N)nc2c1` [VMS-7-3], the inhibition at 3 µM stood at 96.7%.
With `CN(C)c1ccc2cc(-c3coc4ccccc34)c(N)nc2c1` [VMS-7-7], the inhibition at 0.3 µM was 87.2%, the inhibition at 1 µM is 97.8% and the inhibition at 3 µM was determined as 96.8%.
Consider `COc1ccc2c(c1)c(-c1cc3ccc(N(C)C)cc3nc1N)cn2C` [VMS-7-29], for which the inhibition at 3 µM worked out at 99.3%.
Same read-out and setting: to `CNc1ccc2cc(-c3cc(Cl)cc(Cl)c3)c(N)nc2c1` [VMS-8-65] belongs 97.2%; to `CNc1ccc2cc(-c3cn(C)c4ccccc34)c(N)nc2c1` [VMS-8-67], 96.9%.

Source of the values: patent US12630532B2, “Indole-substituted quinolines and their combination with Plk1 inhibitors for the treatment of cancer” (UNIVERSITY OF KENTUCKY RESEARCH FOUNDATION, priority 2021, dated 2026).
